{"source": "patent US11844808B2", "about": "“Methods and compositions for treating pre-eclampsia” (Women & Infants Hospital of Rhode Island, priority 2018, dated 2023)", "key": {"[1]": {"test_system": "LAMP1/2, TFEB and cathepsin D", "assay": "Expression of LAMP1/2, TFEB and cathepsin D in hypoxia-exposed primary trophoblast cells", "type": "cell-based, human", "method": "FIG. 15. To investigate the underlying mechanisms, it was evaluated whether Trehalose can enhance the activities of autophagy-lysosomal degradation pathway, the machinery responsible for clearance of protein aggregates. To this end, the signaling molecules of this machinery such as LAMP1/2, TFEB and cathepsin D were examined in primary trophoblast cells in response to hypoxia stimulation with and without Trehalose treatment."}, "pregnant IL10-/- mice": {"test_system": "pregnant IL10-/- mice", "assay": "Mouse model of PE: severe PE serum in pregnant IL10-/- mice", "type": "in vivo", "conditions": "for preeclampsia-like features (hypertension, proteinuria, growth restriction, kidney injury): PE serum at gd10 in IL-10-/- mice, 2 g/kg i.p. at gd9, or gd11 and gd14, or gd9, gd11 and gd14, readout gd17", "method": "(§1) FIGS. 16 and 17. Based on the results in the cellular model of PE, the effect of Trehalose treatment in an animal model of PE was evaluated next in an established mouse model of PE by a single administration of severe PE serum in pregnant IL10^−/− mice at gd10^22. Using this model, mice were injected intraperitoneally with vehicle, Trehalose (2 g/kg), maltose, or D-glucose (2 g/kg) at gestational day (gd) 9 (a single dose before serum injection), at gd11 and gd14 (two doses after serum injection), or at gd9, gd11 and gd14 (one dose before and two doses after serum injection) (FIG. 16). At gd17, urine was collected, blood pressure was measured, and fetal weight was recorded (FIG. 17A-D). Kidney was fixed and processed for H&E staining for glomerular endotheliosis (FIG. 17E). As reported previously, administration of severe PE sera, not normal pregnancy sera, at gd10 recapitulated a full spectrum of PE-like manifestations in IL-10^−/− mice, including hypertension, proteinuria, renal injury and fetal growth restriction (FIG. 17)."}, "cis-P-tau": {"test_system": "cis-P-tau", "assay": "cis-P-tau immunostaining in hypoxia-exposed primary trophoblast cells", "type": "cell-based, human", "conditions": "trehalose 50 mM, 1% O2, 3 days", "method": "(§2) Human primary trophoblast cells (ScienCell Research Laboratories) were plated on glass coverslips and cultured in trophoblast medium supplemented with 5% fetal bovine serum, 1% trophoblast growth supplement and 1% penicillin/streptomycin (ScienCell Research Laboratories) in a humidified atmosphere with 5% CO2 at 37° C. Cells were washed three times with Dulbecco's phosphate-buffered saline and cultured in serum-free trophoblast medium prior to exposure to low oxygen tension (1% O2) or normoxia (20% O2) for 3 days. Cells were fixed with 4% formaldehyde in PBS for 15 min, permeabilized and then stained with ProteoStat® dye.\nPrimary trophoblast cells were treated with vehicle or trehalose (50 mM), exposed to low oxygen tension (1% O2) or normoxia, and fixed at 3 days. After permeabilized and blocked in PBS solution containing 1% Triton-X, 3% BSA and normal donkey serum for 30 min, cells were immunostained for cis-P-tau and mounted in anti-quench mounting medium with DAPI."}, "Pin1": {"test_system": "Pin1", "assay": "Pin1 immunostaining in nuclei of hypoxia-exposed primary trophoblast cells", "type": "cell-based, human", "conditions": "trehalose 50 mM, 1% O2, 3 days", "method": "as §2\n(§3) Primary trophoblast cells were treated with vehicle or trehalose (50 mM), exposed to low oxygen tension (1% O2) or normoxia, and fixed at 3 days. After permeabilized and blocked in PBS solution containing 1% Triton-X, 3% BSA and normal donkey serum for 30 min, cells were immunostained for cis-P-tau with mouse anti-Pin1 antibody and then with Alexa Fluor 488 donkey anti-mouse secondary antibody. Cells were then mounted in anti-quench mounting medium with DAPI."}, "pS71-Pin1": {"test_system": "pS71-Pin1", "assay": "pS71-Pin1 immunostaining in nuclei of hypoxia-exposed primary trophoblast cells", "type": "cell-based, human", "conditions": "trehalose 50 mM, 1% O2, 3 days", "method": "as §2\nas §3, with “pS71-Pin1” for “cis-P-tau”, “rabbit anti-pS71-Pin1” for “mouse anti-Pin1”, “anti-rabbit” for “anti-mouse”"}, "[2]": {"test_system": "components of autophagy-lysosomal machinery", "assay": "Western blot of autophagy markers in hypoxia-exposed primary trophoblast cells", "type": "cell-based, human", "conditions": "trehalose 50 mM, 1% O2, 3 days", "method": "Primary trophoblast cells were treated with vehicle or trehalose (50 mM), exposed to low oxygen tension (1% O2) or normoxia, and fixed at 3 days. Cells were harvested and lysed in RIPA lysis buffer containing protease inhibitors cocktail (Sigma). Proteins were separated by 4-12% SDS-PAGE and transferred into PVDF membrane. After blocking with 5% nonfat milk in PBS-tween (PBS-T) buffer for 30 min, the transferred membrane was incubated overnight in indicated primary antibodies, diluted in 3% or 5% BSA in PBS-T buffer, at 4° C. The membrane was washed three times, incubated for 1 h at room temperature with HRP-conjugated goat anti-rabbit/mouse IgG (Cell signaling), and then treated with enhanced chemiluminescent substrate (Thermofisher) and exposed on film."}, "[3]": {"test_system": "protein aggregates in primary trophoblast cells", "assay": "ProteoStat staining of protein aggregates in hypoxia-exposed primary trophoblast cells", "type": "cell-based, human", "conditions": "1% O2, 3 days", "method": "Human primary trophoblast cells (ScienCell Research Laboratories) were plated on glass coverslips and cultured in trophoblast medium supplemented with 5% fetal bovine serum, 1% trophoblast growth supplement and 1% penicillin/streptomycin (ScienCell Research Laboratories) in a humidified atmosphere with 5% CO2 at 37° C. Cells were washed three times with Dulbecco's phosphate-buffered saline and cultured in serum-free trophoblast medium prior to exposure to low oxygen tension (1% O2) or normoxia (20% O2) for 3 days. Cells were fixed with 4% formaldehyde in PBS for 15 min, permeabilized and then stained with ProteoStat® dye. […] FIG. 14. The effect of Trehalose on protein aggregation was examined in primary trophoblast cells in response to hypoxia, a useful cellular model of PE. Primary trophoblast cells were cultured under normoxic and hypoxic (1% O2) culture conditions for 3 days, treated with vehicle, Trehalose, maltose, sucrose or D-glucose and then fixed for staining or lysed for Western blotting. ProteoStat, a dye with high affinity to aggregated proteins, was used to detect protein aggregates in treated and untreated cells."}, "TCL-1 cells": {"test_system": "TCL-1 cells", "assay": "Autophagy-lysosomal machinery and protein aggregates in trophoblast cell line TCL-1 under hypoxia", "type": "cell-based, human"}, "[4]": {"test_system": "placenta of pre-eclamptic mice", "assay": "Placentas of pre-eclamptic mice: ProteoStat signal and cathepsin D expression", "type": "in vivo, mouse", "conditions": "all dose regimens", "method": "as §1\nFIG. 18. Furthermore, the molecular events that underlie effects of Trehalose in pre-eclamptic mice were interrogated. The placentas from Trehalose-treated mice and controls were assessed for the abundance of aggregated proteins and expression of molecules in autophagy-lysosomal pathway."}, "[5]": {"conditions": "FDA; safety studies in mice, rats, and rabbits including in pregnancy; cited from earlier work"}}, "data": [{"smiles": "OC[C@H]1O[C@H](O[C@H]2[C@H](O)[C@@H](O)C(O)O[C@@H]2CO)[C@H](O)[C@@H](O)[C@@H]1O", "note": "(mixture of isomers) [maltose, reference compound]", "values": [{"measurement": "hypoxia-induced downregulation of LAMP1/2, TFEB and cathepsin D", "setting": "[1]", "value": "not easily observed"}, {"measurement": "preeclampsia-like features (hypertension, proteinuria, growth restriction, kidney injury)", "setting": "pregnant IL10-/- mice", "value": "failed to rescue PE-like features"}]}, {"smiles": "O=C[C@H](O)[C@@H](O)[C@H](O)[C@H](O)CO", "note": "[D-glucose, reference compound]", "values": [{"measurement": "hypoxia-induced downregulation of LAMP1/2, TFEB and cathepsin D", "setting": "[1]", "value": "not easily observed"}, {"measurement": "preeclampsia-like features (hypertension, proteinuria, growth restriction, kidney injury)", "setting": "pregnant IL10-/- mice", "value": "failed to rescue PE-like features"}]}, {"smiles": "OC[C@H]1O[C@H](O[C@H]2O[C@H](CO)[C@@H](O)[C@H](O)[C@H]2O)[C@H](O)[C@@H](O)[C@@H]1O", "note": "[Trehalose]", "values": [{"measurement": "hypoxia-induced upregulation of cis-P-tau", "setting": "cis-P-tau", "value": "blocked hypoxia-induced upregulation of cis-P-tau"}, {"measurement": "hypoxia-induced downregulation of nuclear Pin1 expression", "setting": "Pin1", "value": "blocked hypoxia-induced downregulation of nuclear Pin expression"}, {"measurement": "hypoxia-induced upregulation of nuclear pS71-Pin1 expression", "setting": "pS71-Pin1", "value": "inhibited hypoxia-induced upregulation of nuclear pS71-Pin1 expression"}, {"measurement": "hypoxia-induced downregulation of components of autophagy-lysosomal machinery (Western blot)", "setting": "[2]", "value": "blocked hypoxia-induced downregulation of these proteins"}, {"measurement": "hypoxia-induced accumulation of protein aggregates (ProteoStat signal)", "setting": "[3]", "value": "significantly rescued hypoxia-induced accumulation of protein aggregates"}, {"measurement": "hypoxia-induced accumulation of protein aggregates (ProteoStat signal)", "setting": "[3]; listed as trehalose", "value": "inhibits protein aggregation"}, {"measurement": "hypoxia-induced downregulation of LAMP1/2, TFEB and cathepsin D", "setting": "[1]", "value": "significantly rescued hypoxia-induced downregulation of these molecules"}, {"measurement": "autophagy-lysosomal machinery and aggregate clearance under hypoxia", "setting": "TCL-1 cells", "value": "restores autophagy machinery"}, {"measurement": "preeclampsia-like features (hypertension, proteinuria, growth restriction, kidney injury)", "setting": "pregnant IL10-/- mice", "value": "significantly reversed preeclampsia-like features"}, {"measurement": "effect in mice administered normal pregnancy sera", "setting": "pregnant IL10-/- mice; normal pregnancy serum, IL-10-/- mice, 2 g/kg i.p.", "value": "did not have obvious effect"}, {"measurement": "expression of cathepsin D in placenta", "setting": "[4]", "value": "rescued the expression of cathepsin D"}, {"measurement": "protein aggregates in placenta (ProteoStat signal)", "setting": "[4]; labyrinth, junctional zone and decidua", "value": "significantly decreased protein aggregates"}, {"measurement": "safety status", "setting": "[5]", "value": "generally regarded as safe"}]}]}
